Assays:
Collagen 1A = test: Induction of Collagen1A gene expression in primary human dermal fibroblasts (quantitative PCR); format: cell-based; details: for Collagen 1A Normalized Fold-change in PCR (Mean): 48 hr, normalized to GAPDH, from untreated
Description: (§1) Primary human dermal fibroblasts (Lifeline Cell Technologies, Frederick, Md.) were grown until confluence in DMEM media (Invitrogen/Life Technologies, Carlsbad, 10 CA) with 10% FBS and 1% Penicillin-Streptomycin on 24 well tissue culture plates, followed by treatment with 1-hydroxyl 3,5-bis(4′hydroxyl styryl)benzene (0.1 ug/mL) with and without TNF-a for 48 hr. Post-treatment, cells were lysed using RLT buffer and total RNA was isolated using the RNeasy Mini Kit (Qiagen, Valencia, Calif.). Quantitative PCR was performed using the Gene Amp PCR System 9700 and 7500 Real Time PCR 15 System cycler (Applied Biosystems)/Life Technologies, Carlsbad, Calif.). Elastin (Qiagen) and Collagen1α1 primers (custom sequence-sense: 5′-TCC-CCA-GCT-GTC-TTA-TGG CT-3′ (SEQ ID NO: 1) and anti-sense: 5′-CAG-GCA-CGG-AAA-TTC-CTC-C-3′ (SEQ ID NO: 2)) were used. The housekeeping gene GAPDH was used for normalization (custom primer sequence: F 5′-ATC-TCT-GCC-CCC-TCT-GCT-G-3′ (SEQ ID NO: 3) and R 5′-ATG-GTT-CAC-ACC-CAT-GAC-GA-3′ (SEQ ID NO: 4); Invitrogen/Life Technologies, Carlsbad, Calif.). Fold-changes in PCR (normalized to 5 GAPDH) were calculated from untreated.

MMP-9 = test: Inhibition of TNF-α-induced MMP-9 levels in epidermal equivalents (EPI 200 HCF); format: cell-based, human; details: summary statement
Description: The ability of 1-hydroxyl 3,5-bis(4′hydroxyl styryl)benzene to inhibit TNF-a induced MMP-9 levels was tested at different concentrations as follows. The formation of TNF-α induced MMP-9 is involved in the undesirable breakdown of extracellular matrix in human skin.
Epidermal equivalents (EPI 200 HCF) were purchased from MatTek (Ashland, Mass.). Upon receipt, the epidermal equivalents were incubated for 24 hours at 37° C. in maintenance medium without hydrocortisone. The equivalents were topically treated (2 mg/cm^2) with 1-hydroxyl 3,5-bis(4′hydroxyl styryl)benzene extracts in a 70% ethanol/30% propylene glycol vehicle 2 hours before treatment with TNF-α (100 ng/mL). the equivalents were incubated for 48 hours at 37° C. with maintenance medium then supernatants were analyzed for MMP-9 using commercially available kits (R&D Systems, Minneapolis, Minn.).

IL-8 cytokine release = test: Anti-inflammatory activity: IL-8 cytokine release from UV-exposed epidermal equivalents (EPI 200 HCF); format: cell-based, human; details: summary statement
Description: The topical anti-inflammatory activities of 1-hydroxyl 3,5-bis(4′hydroxyl styryl)benzene and its piperazine salt were evaluated as follows.
Epidermal equivalents (EPI 200 HCF), multilayer and differentiated epidermis consisting of normal human epidermal keratinocytes, were purchased from MatTek (Ashland, Mass.). Upon receipt, epidermal equivalents were incubated for 24 hours at 37° C. in maintenance medium without hydrocortisone. Equivalents were topically treated (2 mg/cm^2) with 1-hydroxyl 3,5-bis(4′hydroxyl styryl)benzene thereof in a 70:30 Ethanol-Propylene glycol vehicle two hours before exposure to solar ultraviolet light (1000W-Oriel solar simulator equipped with a 1-mm Schott WG 320 filter; UV dose applied: 70 kJ/m^2 as measured at 360 nm). The equivalents were incubated for 24 hours at 37° C. with maintenance medium then supernatants were analyzed for IL-8 cytokine release using commercially available kits (Millipore Corp., Billerica, Mass.).

Elastin = test: Induction of Elastin gene expression in primary human dermal fibroblasts (quantitative PCR); format: cell-based; details: summary statement
Description: as §1

SMILES	Collagen 1A Normalized Fold-change in PCR (Mean) (Collagen 1A; 0.1 ug/mL with TNF-α (10 ng/mL))	Collagen 1A Normalized Fold-change in PCR (Mean) (Collagen 1A; 0.1 ug/mL, without TNF-a)	expression of genes associated with collagen production (in words) (Collagen 1A; summary statement)	formation of TNF-α induced MMP-9 (in words) (MMP-9)	reduction in UV-induced inflammation in human skin cells (in words) (IL-8 cytokine release)	expression of genes associated with elastin production (in words) (Elastin)
Oc1ccc(/C=C/c2cc(O)cc(/C=C/c3ccc(O)cc3)c2)cc1 [1-hydroxyl 3,5-bis(4′hydroxylstyryl)benzene]	1.36	2.96	increased	inhibited	strong reduction	increased
Oc1ccc(C=Cc2cc(O)cc(C=Cc3ccc(O)cc3)c2)cc1 [1-hydroxyl 3,5-bis(4′hydroxylstyryl)benzene]	–	–	–	–	strong reduction	–

— patent publication US8846013B2, “Topical application of 1-hydroxyl-3,5-BIS(4′hydroxy styryl)benzene” (Johnson & Johnson Consumer Companies, Inc., priority 2012, dated 2014)
